The source of these data is patent publication US20230027361A1, “METTL3 MODULATORS” (priority 2019, published 2023).

The term IC50 denotes the concentration that gives 50% inhibition.

The target in one assay is METTL1/WDR4 (Homo sapiens, UniProt Q9UBP6). Nature of the assay: METTL1 Assay (METTL1 biochemical assay). In short, it runs like this: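 Radiometric methyltransfer by METTL1/WDR4 (6.25 nM f.c., 5 min preincubation) at ambient temperature in HEPES pH 7.5, KCl, MgCl2, DTT; started with 25 nM 3′-biotinylated RNA and 60 nM 3H-SAM, run 20 min, quenched with 15 μM cold SAM. Product captured on streptavidin flashplates (2 h, 25° C), counted by scintillation.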
Chain of METTL1/WDR4 (Q9UBP6 whole entry, species assumed): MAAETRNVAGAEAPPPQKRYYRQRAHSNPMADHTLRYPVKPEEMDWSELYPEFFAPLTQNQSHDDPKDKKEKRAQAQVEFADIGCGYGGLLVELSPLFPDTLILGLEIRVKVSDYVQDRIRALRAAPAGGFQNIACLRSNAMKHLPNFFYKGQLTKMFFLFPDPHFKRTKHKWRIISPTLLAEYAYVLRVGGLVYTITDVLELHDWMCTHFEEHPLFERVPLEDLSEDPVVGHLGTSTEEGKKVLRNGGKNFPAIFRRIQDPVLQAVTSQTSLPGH
Chain of METTL1/WDR4 (P57081 whole entry partner, species assumed): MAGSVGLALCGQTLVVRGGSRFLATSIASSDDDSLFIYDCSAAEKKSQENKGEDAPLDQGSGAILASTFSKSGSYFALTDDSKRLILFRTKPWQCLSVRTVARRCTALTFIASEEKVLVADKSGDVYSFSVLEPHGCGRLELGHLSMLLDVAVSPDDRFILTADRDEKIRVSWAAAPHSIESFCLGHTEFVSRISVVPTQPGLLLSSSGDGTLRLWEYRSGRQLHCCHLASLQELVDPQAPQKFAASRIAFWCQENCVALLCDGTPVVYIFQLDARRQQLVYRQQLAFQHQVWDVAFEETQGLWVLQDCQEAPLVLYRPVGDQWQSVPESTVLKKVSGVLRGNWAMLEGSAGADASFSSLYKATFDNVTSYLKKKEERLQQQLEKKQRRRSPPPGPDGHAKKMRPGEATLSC

A further assay concerns the target METTL3/METTL14 (Homo sapiens, UniProt Q86U44). Nature of the assay: METTL3-14 Standard Enzyme Assay (METTL3 biochemical assay). The procedure, abridged: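 METTL3/METTL14 at 2.5 nM, preincubated 5 min with compound in 20 mM HEPES pH 7.5, 50 mM KCl, 250 μM MgCl2, 1 mM DTT, at ambient temperature. Started with 100 nM 3′-biotinylated RNA and 100 nM ³H-SAM, quenched at 30 min with 15 μM cold SAM. Methylation read by scintillation on streptavidin flashplates.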

The test system of assay [1] is MOLM-13 cells. Nature of the assay: MOLM-13 96 Hour Cell Proliferation Assay. Type of assay: cell-based. How it is done: MOLM-13 (DSMZ) cells were seeded at 600 cells per well in a volume of 44 μL in a Greiner Bio-One CELLSTAR™ 384 Well Polystyrene Cell Culture clear bottom microplate in RPMI 1640 media containing 10% fetal bovine serum using a Multidrop Combi (ThermoFisher Scientific). Cells were incubated overnight at 37° C. in a humidified tissue culture incubator. To prevent evaporation or to reduce edge effect, add 50 μL or more H2O to an empty plate, cover, and place on top of the cell plates. The Mosquito® HTS Liquid Handler was used to make a compound/media intermediate plate by aliquoting 1 μL of compound from the initial compound dilution plate (concentrations ranging from 10.0 mM to 38.0 nM in 100% DMSO) into Bio-One 384-well polypropylene conical bottom microplate containing 49 μL of media containing the appropriate serum (50-fold dilution, 2% DMSO, compound concentrations ranging from 200.0 μM and […]). The Apricot liquid handling system was used to transfer 6.2 μL compounds from the intermediate plate into the seeding plate containing 44 μL cells (8-fold dilution spanning concentrations 25.0 μM to […], 0.25% DMSO final), and placed in a humidified tissue culture incubator at 37° C. After 96 hours, 25 μL of Cell Titer-Glo reagent (Promega) was added to each well using an Integra liquid handling system. The plate was protected from light using TopSeal-A (Black) film over the entire plate, added White Bottom seal film on the bottom of the entire plate for a better reading on the Envision, and placed on an IKA plate shaker for at 300 rpm for 10 minutes at room temperature. The plate was read on an EnVision plate reader (Perkin Elmer) using the Ultra Sensitive Luminescence protocol. Data analysis was performed by normalizing the raw luminescence units to an average of the positive control values for staurosporine (100% cell death) and the negative control values for DMSO (0% cell death). An IC50 was calculated using a 4-parameter logistic nonlinear regression model in GraphPad Prism.

For the next assay, the target named is PRMT5-MEP50 (Homo sapiens, UniProt O14744). Nature of the assay: PRMT5 Assay (PRMT5 biochemical assay). In short, it runs like this:
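PRMT5-MEP50 (2.5 nM final) preincubated 5 min with compound, then reacted 60 min at ambient temperature with 100 nM biotinylated N-acetyl histone H4 peptide and 250 nM 3H-SAM in 20 mM Tris-HCl pH 8.0, 1 mM DTT, 0.01% Tween. Quenched with 15 μM cold SAM; methylated peptide captured on streptavidin flashplates, scintillation counted.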

Assay [2] relates to MOLM-13 cells. Nature of the assay: MOLM-13 48 Hour Cell Proliferation Assay. Type of assay: cell-based. How it is done:
MOLM-13 (DSMZ) cells were seeded at 1000 cells per well in a volume of 44 μL in a Falcon 384-well tissue culture treated clear bottom microplate in RPMI 1640 media containing 10% fetal bovine serum using a Multidrop Combi (ThermoFisher Scientific). Cells were incubated overnight at 37° C. in a humidified tissue culture incubator. The Mosquito® HTS Liquid Handler was used to make a compound/media intermediate plate by aliquoting 1 μL of compound from the initial compound dilution plate (concentrations ranging from 10.0 mM to 38.0 nM in 100% DMSO) into a V bottom 384-well screen matrix plate containing 49 μL of media containing the appropriate serum (50-fold dilution, 2% DMSO). The Apricot liquid handling system was used to transfer 6.2 μL compounds from the intermediate plate into the Falcon 384-well tissue culture plate containing 44 μL cells (10-point, 4-fold dilution spanning concentrations 25.0 μM to […], 0.25% DMSO final), and placed in a humidified tissue culture incubator at 37° C. After 48 hours, 25 μL of Cell Titer-Glo reagent (Promega) was added to each well using a Multidrop Combi. The plate was protected from light and placed on an IKA plate shaker for at 300 rpm for 10 minutes at room temperature. The plate was read on an EnVision plate reader (Perkin Elmer) using the Ultra Sensitive Luminescence protocol. Data analysis was performed by normalizing the raw luminescence units to an average of the positive control values for staurosporine (100% cell death) and the negative control values for DMSO (0% cell death). An IC50 was calculated using a 4-parameter logistic nonlinear regression model in GraphPad Prism.

[3] abbreviates: read-out: METTL1 IC50, METTL1 biochemical assay.
Where [4] appears, read: METTL3 biochemical assay, read-out: METTL3 IC50.
[5] abbreviates: PRMT5 biochemical assay, read-out: PRMT5 IC50.
The mark [6] stands for this setting: METTL1 biochemical assay, read-out: METTL1 IC50.

Molecules are shown by their SMILES. Like-named read-outs stand apart in the source and are kept apart here.

Chain of PRMT5-MEP50 (O14744 whole entry): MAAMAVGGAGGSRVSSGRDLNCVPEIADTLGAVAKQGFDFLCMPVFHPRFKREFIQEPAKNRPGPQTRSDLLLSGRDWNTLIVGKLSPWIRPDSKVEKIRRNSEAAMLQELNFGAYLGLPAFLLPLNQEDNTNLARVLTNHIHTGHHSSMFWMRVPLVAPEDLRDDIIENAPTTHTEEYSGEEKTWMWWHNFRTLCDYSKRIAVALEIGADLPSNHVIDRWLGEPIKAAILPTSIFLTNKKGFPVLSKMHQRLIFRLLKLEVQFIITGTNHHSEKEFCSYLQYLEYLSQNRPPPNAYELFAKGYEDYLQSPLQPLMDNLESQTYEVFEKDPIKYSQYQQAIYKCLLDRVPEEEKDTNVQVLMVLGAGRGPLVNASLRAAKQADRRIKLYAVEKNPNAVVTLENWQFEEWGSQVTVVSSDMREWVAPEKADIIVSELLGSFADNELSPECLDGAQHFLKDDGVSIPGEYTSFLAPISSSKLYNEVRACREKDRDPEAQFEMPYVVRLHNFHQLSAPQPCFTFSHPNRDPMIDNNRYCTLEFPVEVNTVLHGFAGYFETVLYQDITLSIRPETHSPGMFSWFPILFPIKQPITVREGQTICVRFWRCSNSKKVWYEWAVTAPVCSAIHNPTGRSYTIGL
Chain of PRMT5-MEP50 (Q9BQA1 whole entry partner): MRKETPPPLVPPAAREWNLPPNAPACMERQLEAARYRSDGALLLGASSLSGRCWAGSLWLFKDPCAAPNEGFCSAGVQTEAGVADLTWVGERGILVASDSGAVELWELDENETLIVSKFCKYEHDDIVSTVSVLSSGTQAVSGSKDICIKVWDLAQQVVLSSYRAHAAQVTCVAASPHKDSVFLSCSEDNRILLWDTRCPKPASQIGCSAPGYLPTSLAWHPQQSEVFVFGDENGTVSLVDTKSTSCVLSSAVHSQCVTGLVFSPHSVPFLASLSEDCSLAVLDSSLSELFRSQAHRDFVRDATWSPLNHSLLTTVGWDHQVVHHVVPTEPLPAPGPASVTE
Chain of METTL3/METTL14 (Q86U44 whole entry, species assumed): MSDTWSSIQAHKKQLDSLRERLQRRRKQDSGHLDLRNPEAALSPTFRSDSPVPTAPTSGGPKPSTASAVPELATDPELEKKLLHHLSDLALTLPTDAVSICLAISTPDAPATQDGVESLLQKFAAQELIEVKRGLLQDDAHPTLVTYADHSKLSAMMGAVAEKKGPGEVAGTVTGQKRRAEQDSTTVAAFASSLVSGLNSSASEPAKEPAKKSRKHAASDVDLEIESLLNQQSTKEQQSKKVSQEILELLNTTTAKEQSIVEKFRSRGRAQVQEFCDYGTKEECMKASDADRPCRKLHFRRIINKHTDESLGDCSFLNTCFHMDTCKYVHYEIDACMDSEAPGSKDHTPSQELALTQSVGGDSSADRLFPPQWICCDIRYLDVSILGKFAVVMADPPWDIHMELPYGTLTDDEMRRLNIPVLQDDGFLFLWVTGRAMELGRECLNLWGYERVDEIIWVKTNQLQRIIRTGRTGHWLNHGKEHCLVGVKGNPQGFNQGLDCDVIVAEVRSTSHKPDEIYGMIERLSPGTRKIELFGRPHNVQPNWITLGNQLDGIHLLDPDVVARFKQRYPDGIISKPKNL
Chain of METTL3/METTL14 (Q9HCE5 whole entry partner, species assumed): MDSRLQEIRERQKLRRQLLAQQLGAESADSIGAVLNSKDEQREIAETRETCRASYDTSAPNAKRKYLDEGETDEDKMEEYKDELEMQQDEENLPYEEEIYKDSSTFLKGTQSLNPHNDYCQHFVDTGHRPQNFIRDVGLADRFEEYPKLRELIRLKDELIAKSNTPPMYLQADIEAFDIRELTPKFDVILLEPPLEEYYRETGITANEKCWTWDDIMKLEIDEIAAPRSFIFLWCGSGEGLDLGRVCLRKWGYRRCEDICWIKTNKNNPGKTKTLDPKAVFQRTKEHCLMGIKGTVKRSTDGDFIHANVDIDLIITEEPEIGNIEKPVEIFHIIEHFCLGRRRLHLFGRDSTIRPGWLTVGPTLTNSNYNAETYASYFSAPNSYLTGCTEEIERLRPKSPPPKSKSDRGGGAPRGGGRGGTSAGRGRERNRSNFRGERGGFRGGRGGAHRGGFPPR

For `Nc1ccc2ccc(CC[C@H]3C[C@@H](n4cc(C5CCCC5)c5c(N)ncnc54)[C@H](O)[C@@H]3O)cc2n1` [I-60], the IC50 on METTL1/WDR4 (setting [3]) was > 1000 nM; at METTL3/METTL14 (setting [4]), 10 to 100 nM; with MOLM-13 cells [1] (Homo sapiens, MOLM-13, 96 h) it was < 1000 nM; at PRMT5-MEP50 (setting [5]) it was < 10 nM; with MOLM-13 cells [2] (Homo sapiens), 1000 to 10000 nM.
As for `CNc1ccc2ccc(CC[C@H]3C[C@@H](n4ccc5c(N)ncnc54)[C@H](O)[C@@H]3O)cc2n1` [I-123], the IC50 on METTL1/WDR4 (setting [3]) was > 1000 nM; on METTL3/METTL14 (setting [4]), < 10 nM; with MOLM-13 cells [1] (Homo sapiens, MOLM-13, 96 h) it was < 1000 nM; at PRMT5-MEP50 (setting [5]), < 10 nM; in the assay with MOLM-13 cells [2] (Homo sapiens), > 10000 nM.
On to `CCc1cc(N(C)C)c2ccc(OC[C@H]3O[C@@H](n4cc(-c5ccn(C)n5)c5c(N)ncnc54)[C@@H](F)[C@@H]3O)cc2n1` [I-153], for which the half-maximal inhibitory concentration (IC50) on METTL3/METTL14 was < 10 nM; in the assay with MOLM-13 cells [1] (Homo sapiens) it was < 1000 nM; with MOLM-13 cells [2] (Homo sapiens), 1000 to 10000 nM.
As for `CCc1cc(N(C)C2CC2)c2ccc(OC[C@H]3O[C@@H](n4cc(-c5ccn(C)n5)c5c(N)ncnc54)[C@@H](F)[C@@H]3O)cc2n1` [I-154], the IC50 is < 10 nM at METTL3/METTL14, 1000 to 10000 nM with MOLM-13 cells [1] (Homo sapiens) and 1000 to 10000 nM in the assay with MOLM-13 cells [2] (Homo sapiens).
In the case of `CCc1cc(N(C)CC2CC2)c2ccc(OC[C@H]3O[C@@H](n4cc(-c5ccn(C)n5)c5c(N)ncnc54)[C@@H](F)[C@@H]3O)cc2n1` [I-155], the IC50 against METTL3/METTL14 is < 10 nM; in the assay on MOLM-13 cells [1] (Homo sapiens), < 1000 nM; in the assay with MOLM-13 cells [2] (Homo sapiens), 1000 to 10000 nM.
For `CCc1cc(N2CCOCC2)c2ccc(OC[C@H]3O[C@@H](n4cc(-c5ccn(C)n5)c5c(N)ncnc54)[C@@H](F)[C@@H]3O)cc2n1` [I-156], in that order: < 10 nM, < 1000 nM and 1000 to 10000 nM.
Consider `CCc1cc(NCCOC)c2ncc(OC[C@H]3O[C@@H](n4cc(-c5ccn(C)n5)c5c(N)ncnc54)[C@H](O)[C@@H]3O)cc2n1` [I-159], for which the IC50 is < 10 nM against METTL3/METTL14, 1000 to 10000 nM in the assay with MOLM-13 cells [1] (Homo sapiens) and > 10000 nM in the assay with MOLM-13 cells [2] (Homo sapiens).
Turning to `CCc1cc(N(C)C2CC2)c2ccc(OC[C@H]3O[C@@H](n4cc(-c5ccn(C)n5)c5c(N)ncnc54)C[C@@H]3O)cc2n1` [I-160], the half-maximal inhibitory concentration (IC50) against METTL3/METTL14 is < 10 nM; in the assay with MOLM-13 cells [1] (Homo sapiens) it was 1000 to 10000 nM; with MOLM-13 cells [2] (Homo sapiens) it was 1000 to 10000 nM.
Take `CN(CCO)c1ccc2ccc(OC[C@H]3O[C@@H](n4cc(-c5ccn(C)n5)c5c(N)ncnc54)[C@@H](F)[C@@H]3O)cc2n1` [I-162]: the half-maximal inhibitory concentration (IC50) at METTL3/METTL14 is < 10 nM; in the assay on MOLM-13 cells [1] (Homo sapiens) it was < 1000 nM; against PRMT5-MEP50, > 1000 nM; in the assay on MOLM-13 cells [2] (Homo sapiens), 1000 to 10000 nM.
For `Nc1ncnc2c1c(CO)cn2[C@@H]1O[C@H](COc2ccc3ccc(N4CCC4)nc3c2)[C@@H](O)[C@@H]1F` [I-163], the IC50 at METTL3/METTL14 (setting [4]) was < 10 nM; in the assay with MOLM-13 cells [1] (Homo sapiens, MOLM-13, 96 h), 1000 to 10000 nM; on PRMT5-MEP50 (setting [5]), > 1000 nM; in the assay on MOLM-13 cells [2] (Homo sapiens), 1000 to 10000 nM.
Regarding `Nc1ncnc2c1ccn2[C@H]1C[C@H](O)[C@@H](COc2ccc3ccc(N4CCC4)nc3c2)O1` [I-165], the IC50 at METTL3/METTL14 (setting [4]) is < 10 nM; with MOLM-13 cells [1] (Homo sapiens, MOLM-13, 96 h), 1000 to 10000 nM; at PRMT5-MEP50 (setting [5]), > 1000 nM; with MOLM-13 cells [2] (Homo sapiens), > 10000 nM.
With `Nc1ncnc2c1c(-n1ccc(C(F)(F)F)n1)cn2[C@H]1C[C@H](O)[C@@H](COc2ccc3ccc(N4CCC4)nc3c2)O1` [I-178], the IC50 against METTL3/METTL14 is < 10 nM; in the assay on MOLM-13 cells [1] (Homo sapiens), 1000 to 10000 nM; on PRMT5-MEP50, > 1000 nM; in the assay with MOLM-13 cells [2] (Homo sapiens), 1000 to 10000 nM.
For `Nc1ncnc2c1ccn2[C@H]1C[C@H](O)[C@@H](COc2ccc3ccc(NC4CC4)nc3c2)O1` [I-180], the IC50 at METTL3/METTL14 (setting [4]) was 10 to 100 nM; with MOLM-13 cells [1] (Homo sapiens, MOLM-13, 96 h), > 10000 nM; on PRMT5-MEP50 (setting [5]) it was 100 to 1000 nM; in the assay with MOLM-13 cells [2] (Homo sapiens), > 10000 nM.
As to `Cn1ccc(-c2cn([C@@H]3O[C@H](COc4ccc5ccc(N6CC(N)C6)nc5c4)[C@@H](O)[C@@H]3F)c3ncnc(N)c23)n1` [I-181], the IC50 was < 10 nM against METTL3/METTL14, < 1000 nM in the assay with MOLM-13 cells [1] (Homo sapiens), > 1000 nM against PRMT5-MEP50 and < 1000 nM in the assay on MOLM-13 cells [2] (Homo sapiens).
With `Nc1ncnc2c1c(-n1ccc(C(F)(F)F)n1)cn2[C@@H]1O[C@H](COc2ccc3ccc(N4CCC4)nc3c2)[C@@H](O)[C@@H]1F` [I-221], the IC50 on METTL3/METTL14 was < 10 nM; with MOLM-13 cells [1] (Homo sapiens), 1000 to 10000 nM; on PRMT5-MEP50, > 1000 nM; with MOLM-13 cells [2] (Homo sapiens) it was 1000 to 10000 nM.
With `Nc1ncnc2c1c([C@H]1CCCO1)cn2[C@@H]1O[C@H](COc2ccc3ccc(N4CCC4)nc3c2)[C@@H](O)[C@@H]1F` [I-225], the concentration for half-maximal inhibition (IC50) in the assay on MOLM-13 cells [1] is 1000 to 10000 nM; on PRMT5-MEP50 (setting [5]), > 1000 nM; in the assay with MOLM-13 cells [2] it was 1000 to 10000 nM.
`CNc1ccc2ccc(OC[C@H]3O[C@@H](n4cc(-c5cccc(C)n5)c5c(N)ncnc54)[C@@H](F)[C@@H]3O)cc2n1` [I-229]: the IC50 at METTL1/WDR4 (setting [6]) was > 1000 nM; on METTL3/METTL14, < 10 nM; on PRMT5-MEP50, 10 to 100 nM; in the assay on MOLM-13 cells [2] (Homo sapiens), 1000 to 10000 nM.
Turning to `CNc1ccc2ccc(OC[C@H]3O[C@@H](n4cc(F)c5c(N)ncnc54)[C@@H](F)[C@@H]3O)cc2n1` [I-230], the IC50 against METTL1/WDR4 is > 1000 nM; on METTL3/METTL14 (setting [4]) it was < 10 nM; on PRMT5-MEP50 (setting [5]), 10 to 100 nM; with MOLM-13 cells [2] (Homo sapiens) it was 1000 to 10000 nM.
For `CNc1ccc2ccc(OC[C@H]3O[C@@H](n4cc(-c5ccc(C)cn5)c5c(N)ncnc54)[C@@H](F)[C@@H]3O)cc2n1` [I-231], the IC50 was > 1000 nM at METTL1/WDR4 (setting [6]), < 10 nM against METTL3/METTL14, 100 to 1000 nM on PRMT5-MEP50 and < 1000 nM with MOLM-13 cells [2] (Homo sapiens).
